According to US20250235427A1, “5-METHOXY-N,N-[…][…] THE TREATMENT OF SOCIAL/EMOTIONAL […] DETACHMENT” (GH RESEARCH IRELAND LIMITED, priority 2022, published 2025):

Assay: Pharmacokinetics after inhalation of 5-MeO-DMT, LC-MS/MS
Format: in vivo, human
Conditions: for plasma concentration as % of Cmax: whole dose range 6, 12, 18 mg

## COc1ccc2[nH]cc(CCN(C)C)c2c1 [5-MeO-DMT]
10 minutes after inhalation
  plasma concentration as % of Cmax: ≤ 10%
2 hours after inhalation
  plasma concentration as % of Cmax: ≤ 1%
Repeated administration within a time frame of 1 to 4 hours
  accumulation upon repeated administration: No accumulation is observed
